# Assay results as given in US20040249129A1, “Novel lactic bacteria of the genus lactococcus lactis and use thereof for preserving food products” (priority 2001, published 2004).
# Where a SMILES comes first, the peptide text is derived from it. Bridges are numbered along the chain shown (N, C = ends). [ ]: non-standard residue; d: D form. The star is where a group is joined. Ileψ(thiazoline)Cys = CC[C@H](C)[C@H](N)C1=N[C@H](C(=O)*)CS1; dOrn = NCCC[C@@H](N)C(=O)O
# System: LLO strain
# Assay: antibiogram of the strain LLO with antibiotic discs
# Assay type: cell-based, Lactococcus lactis
# Conditions: antibiotic discs on Mueller Hinton medium, 5% horse blood, pH 7.3; 48 hours at ambient temperature; streptomycin 10 U.I., kanamycin 30 U.I., gentamicin 10 U.I.
# Protocol: An antibiogram has been produced with the strain LLO to study its resistance to several antibiotics.
# The test is carried out on Mueller Hinton medium containing 1.7% agar and 5% horse blood, the pH is 7.3. The thickness of the agar in the Petri dishes is constant, it is 4 mm. It is a standardized medium according to the O.M.S. standards.
# The LLO strain is cultivated in an MRS broth, pH 6.5, for […] at 15° C. until there is obtained the stationary phase. The culture is diluted to 1/10th in a Mueller Hinton broth. The approximate concentration of the suspension is 10^6 bacteria/ml.
# The agar media are completely covered with 2 ml of the suspension. The excess liquid is withdrawn and the dishes are dried 10 minutes at ambient temperature. The antibiotic discs are deposited with the help of tongs (4 maximum). The dishes are incubated at ambient temperature for 48 hours.
row,Molecule,Result (antibiogram)
1,C[C@H]1c2cccc(O)c2C(O)=C2C(=O)[C@]3(O)C(O)=C(C(N)=O)C(=O)[C@@H](N(C)C)[C@@H]3[C@@H](O)[C@@H]21 [Doxycyclin],Noticeable
2,CN(C)[C@@H]1C(=O)C(C(N)=O)=C(O)[C@@]2(O)C(=O)C3=C(O)c4c(O)cccc4[C@@](C)(O)[C@H]3C[C@@H]12 [Tetracyclin],Noticeable
3,CC1=C(C(=O)O)N2C(=O)[C@@H](NC(=O)[C@H](N)c3ccccc3)[C@H]2SC1 [Cefalexin],Noticeable
4,Spiramycin,Noticeable
5,CC[C@H]1OC(=O)[C@H](C)[C@@H](O[C@H]2C[C@@](C)(OC)[C@@H](O)[C@H](C)O2)[C@H](C)[C@@H](O[C@@H]2O[C@H](C)C[C@H](N(C)C)[C@H]2O)[C@](C)(O)C[C@@H](C)C(=O)[C@H](C)[C@@H](O)[C@]1(C)O [Erythromycin],Noticeable
6,CCN1CCN(c2cc3c(cc2F)c(=O)c(C(=O)O)cn3C2CC2)CC1 [Enrofloxacin],Noticeable
7,CC[C@H](C)[C@H](N)C1=N[C@H](C(=O)N[C@@H](CC(C)C)C(=O)N[C@H](CCC(=O)O)C(=O)N[C@H](C(=O)N[C@H]2CCCCNC(=O)[C@H](CC(N)=O)NC(=O)[C@@H](CC(=O)O)NC(=O)[C@H](Cc3cnc[nH]3)NC(=O)[C@@H](Cc3ccccc3)NC(=O)[C@H]([C@@H](C)CC)NC(=O)[C@@H](CCCN)NC2=O)[C@@H](C)CC)CS1 [Bacitracin] ({Ileψ(thiazoline)Cys}-L[dE]IK[dOrn]I[dF]H[dD]N; lactam 4-C),Noticeable
8,Gentamicin,Noticeable
9,CC1CCc2cc(F)cc3c(=O)c(C(=O)O)cn1c23 (stereo not drawn) [Flumequin],Resistant
10,[H]/N=C(/N)N[C@H]1[C@H](O)[C@@H](O)[C@H](O[C@@H]2O[C@@H](C)[C@](O)(C=O)[C@H]2O[C@@H]2O[C@@H](CO)[C@H](O)[C@@H](O)[C@@H]2NC)[C@@H](N/C(N)=N\[H])[C@@H]1O [Streptomycin],Noticeable
11,c1ccoc1 [Furan],Resistant
12,CC1(C)S[C@@H]2[C@H](NC(=O)Cc3ccccc3)C(=O)N2[C@H]1C(=O)O [Penicillin G],Noticeable
13,CC1(C)S[C@@H]2[C@H](NC(=O)[C@H](N)c3ccccc3)C(=O)N2[C@H]1C(=O)O [Ampicillin],Noticeable
14,CCC[C@@H]1C[C@@H](C(=O)N[C@@H]([C@H]2O[C@H](SC)[C@H](O)[C@@H](O)[C@H]2O)[C@@H](C)O)N(C)C1 [Lincomycin],Noticeable
15,O=C(N[C@H](CO)[C@H](O)c1ccc([N+](=O)[O-])cc1)C(Cl)Cl [Chloramphenicol],Noticeable
